Experimental data as given in patent publication US7314969B2, “Methods and compositions for the introduction of molecules into cells” (priority 1999, dated 2008).
Where two headings read alike, the source gives them in different places.

Columns and labels:
[1] = test system: embryogenic soybean callus; assay: Effect of media constituents on growth of embryogenic soybean callus in B1-30; type: cell-based
From the text: In another embodiment of the present invention, a novel culture media may be used to stimulate high frequency production of embryogenic soybean callus. Improvement varied with the genotype being cultured. […] The inclusion of one or more of four media constituents, coconut water, myoinositol, phytic acid and inorganic phosphate concentration, enhanced embryogenic callus production and allowed significant improvements to be made to transgenic clone production in terms of number of clones recovered, embryo morphology, and reduction in the time needed to identify the clones and regenerate plants from them. The medium of Ranch et al., 1985 (referred to herein as B1-30) was used as the basal medium. An example of the medium of the present invention is B1-30 3Co5My0.25PA0.5K (footnote, Table 5). Although this medium is a preferred emobodiment of growth medium, other conventional media may be utilized in the practice of the invention.
Coconut water has been included in tissue culture media for over 50 years. Coconut water is liquid taken from coconuts to promote growth in plant tissue cultures. It is deproteinized then filter-sterilized. An example is Sigma Biosciences' Cat. No. C5915. […] Most commonly coconut water is used at concentrations of between 5% and 10% by volume of the final culture medium. The role of coconut water in stimulating the growth of embryogenic callus in soybean was investigated and it was discovered that its effect on cotyledon explants routinely used to initiate embryogenic callus of soybean was detrimental when tested at these concentrations.
One key component of coconut water is myoinositol (Pollard et al., 1961). In an attempt to improve the growth of embryogenic soybean callus with components of coconut water, it was discovered that myoinositol was effective in this regard. Myoinositol has been included in tissue culture media for a variety of plant species. Although apparently not required for all species (Halperin, 1966), it is routinely included in media such as the widely used Murashige and Skoog formulation (Murashige and Skoog, 1962) at a concentration of 100 mg/l. It is at this concentration that it has been included in media used for the culture of embryogenic callus of soybean (e.g., see Ranch et al., 1985).
There are no known reports of the inclusion of phytic acid in culture media for any plant species. Soybean seeds are rich in natural chelating agents, the most prominent of which is phytic acid (Gibson and Ullah, 1990). Substantial amounts of phosphate are stored in seeds in the form of phytate (Raboy, 1990). It is possible that the capacity of phytic acid to sequester inorganic phosphate has a significant impact upon C partitioning into either starch or sucrose. At 1 gm/l in B1-30, embryogenic callus of a range of genotypes exuded starch, possibly confirming the impact of phytic acid on C partitioning. […] Best results over many passages were obtained with the addition of about 5 mg/l to about 250 mg/l phytic acid to the culture medium depending on the genotype.
Inorganic phosphorous in the form of KH2PO4, in excess of the amount conventionally used, was added to the base medium (B1-30) along with myoinositol and coconut water. This medium was tested against B1-30 supplemented with phytic acid in addition to KH2PO4, myoinositol and coconut water.

DH5 cells = type: cell-based, E. coli; conditions: 10 mg/l tetracycline
Protocol: One microgram of supercoiled pSB1 was added to 1.0 ml of sterile ddH2O and briefly vortexed. […] For a control SB1 plasmid was used without the addition of any cationic polypeptides. Transformation of bacteria was carried out as described in Example 17. Briefly, subcloning efficient DH5 cells from Invitrogen were transformed. Ten microliters of cells were mixed with 0.1 ml of YP medium (10 g/L peptone, 5 g/L yeast extract, and 5 g/L NaCl). The cells were pipeted in the center of a YP plate (same as above plus 15.0 g/L agar) and allowed to dry in a laminar flow hood. The pSB1 plus or minus cationic polypeptides was introduced into the cells using an aerosol beam injector as described in parent U.S. patent application Ser. No. 09/724,265. After about 1 hour of incubation at 37° C., the aerosol beamed cells plus the YP medium were cut out as a slab and placed on YP medium with 10 mg/1 tetracycline. Plasmid SB1 harbors resistance to the antibiotic tetracycline. The cells were grown overnight at 37° C. and then evaluated for the presence of colonies that were growing on the medium. If the plasmid pSB1 were sheared it would not replicate in the cell, thus no antibiotic resistant colony would have formed, however, if the plasmid was not sheared it could replicate once inside the cell and an antibiotic colony would have appeared.

bacterial cells = type: cell-based, E. coli
Protocol: Transformation of bacteria using the method of the invention was accomplished as follows: competent E. coli DH5 alpha (Gibco BRL) or HB101 cells were thawed on ice and 5 to 50 microliters were combined with 0.2 ml LB broth. The mixture was pipetted to the center of a plate of LB agar (1.5%) containing 100 mg/l ampicillin and allowed to dry. Aerosol beam parameters were the same as those described previously (Example 1) except as noted in this Example. A pUC-derived plasmid encoding for resistance to the antibiotic ampicillin was delivered to the bacterial cells, as is known in the art. The concentration of DNA ranged from about 1.0 to 1000 μg/ml in 10 mM Tris (pH7.0) or a carbohydrate molecule, such as 1 g/l sucrose. The nebulizing pressure was from about 10 to about 40 psi, preferably 30 to 40 psi. The entrainment temperature was maintained in a given experiment and ranged between experiments from about 24° to about 55° C., and was preferably maintained at about 42° to about 55° C. and most preferably at about 55° C. Various sample flow rates were tested ranging from about 0.25 ml/hour to about 2.0 ml/hour (about 4 μl/min. to about 33 μl/min.). Preferably the flow rate was about 8.0 μl/minute to about 17.0 μl/minute.
Nucleic acid and protein were simultaneously delivered into bacterial cells. Preparation of bacteria and parameters for the aerosol beam apparatus were the same as described previously for delivery of DNA into bacteria (Example 12). The same buffer, plasmid, and plasmid concentration was used as described in the transformation of bacteria. Ribonuclease A (RNASE A) (Sigma cat. no. R6513) was added to the DNA sample at a final concentration of 2.5 μg/ml.
As a control, RNASE A at the same concentration used for beaming was pipetted on the cells after the cells were beamed with DNA only. […] To verify that the RNASE A was not degrading the plasmid, the plasmid treated with RNASE A was run on a standard 1% agarose gel. After staining the DNA with ethidium bromide, the DNA appeared intact and no degradation was evident. […]

[2] = 1 microgram pSB1 in 1.0 ml plus 1.0 ul of 2.0 ug/ul polyamine
[3] = 1 microgram pSB1 in 1.0 ml plus 2.0 ul of 20 ug/ul cationic polypeptide

Molecule: O=P([O-])(O)O.[K+] [KH2PO4]
- effect on embryogenic soybean callus ([1]; 500 and 1000 mg/l added to B1-30 with myoinositol and coconut water, with and without phytic acid): Beneficial effects

Molecule: O[C@H]1[C@H](O)[C@@H](O)[C@H](O)[C@@H](O)[C@H]1O [myoinositol]
- effect on growth of embryogenic soybean callus ([1]; up to 10 g/l, alone or in combination with coconut water): pronounced and beneficial effect

Molecule: O=P(O)(O)O[C@H]1[C@H](OP(=O)(O)O)[C@@H](OP(=O)(O)O)[C@H](OP(=O)(O)O)[C@@H](OP(=O)(O)O)[C@H]1OP(=O)(O)O [phytic acid, inositolhexaphosphoric acid]
- rate of growth of embryogenic callus ([1]; 1, 5, 10, 50, 100, 250, 500 and 1000 mg/l in B1-30, initial culture passage and/or maintenance as stock culture): significantly increased
- growth of soybean callus after initial starch exudation ([1]; 1 gm/l in B1-30, range of genotypes): grew very vigorously
- effect on embryogenic callus ([1]; 3000 mg/l, callus browned and died): clear detrimental effect

Molecule: NCCCCNCCCN [spermidine]
- transformed colonies growing per plate (DH5 cells; [2]): about 500 colonies per plate

Molecule: NCCCNCCCCNCCCN [spermine]
- transformed colonies growing per plate (DH5 cells; [2]): about 500 colonies per plate

Molecule: Poly-L-Lysine
- transformed colonies growing per plate (DH5 cells; [3]): about 500 colonies per plate

Molecule: Poly-L-Ornithine
- transformed colonies growing per plate (DH5 cells; [3]): about 500 colonies per plate

B1: RNASE A: Ribonuclease A (Sigma cat. no. R6513) (protein, UniProt P61823 27-150, looked up)
Ribonuclease pancreatic: KETAAAKFERQHMDSSTSAASSSNYCNQMMKSRNLTKDRCKPVNTFVHESLADVQAVCSQKNVACKNGQTNCYQSYSTMSITDCRETGSSKYPNCAYKTTQANKHIIVACEGNPYVPVHFDASV
- colonies on medium containing ampicillin (bacterial cells; 2.5 μg/ml beamed together with DNA): no colonies were observed
- colonies on medium containing ampicillin (bacterial cells; same concentration pipetted on the cells after beaming with DNA only): transformed colonies grew

B2: inactivated RNASE A: RNASE A inactivated with diethylpyrocarbonate (DEP) (protein, UniProt P61823 27-150, looked up)
Ribonuclease pancreatic: KETAAAKFERQHMDSSTSAASSSNYCNQMMKSRNLTKDRCKPVNTFVHESLADVQAVCSQKNVACKNGQTNCYQSYSTMSITDCRETGSSKYPNCAYKTTQANKHIIVACEGNPYVPVHFDASV
modifications: inactivated with diethylpyrocarbonate
- transformation of bacteria (bacterial cells; RNASE A inactivated with diethylpyrocarbonate, beamed with DNA): normal transformation of bacteria
